Source: patent US11897862B2 (Gilead Sciences, Inc., priority 2022, dated 2024)

How the values were obtained:
[1] = target: IKZF2 (Homo sapiens, UniProt Q96SW2+Q9UKS7); test: HEK293 HiBiT in vitro degradation of IKZF2; format: cell-based; set-up: expressed in transfected cells; settings: for Dmax: HEK293, HEK293 HiBiT; for DC50: 18-24 hr incubation, normalized to DMSO control, read-out: IKZF2 EC50
Outline: (§1)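 Flp-In T-REx HEK293 pools stably expressing C-terminal HiBiT-tagged IKZF1, IKZF2 or SALL4 (single-copy, Tet-On), induced overnight with […] doxycycline. Cells exposed to serially diluted compounds for 18-24 hr at 37° C. Nano-Glo lytic luminescence gave EC50 and Dmax.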

[2] = target: T1, IKZF1 (Homo sapiens, UniProt Q13422+Q96SW2); test: HEK293 HiBiT in vitro degradation of IKZF1; format: cell-based; settings: for DC50: 18-24 hr incubation, normalized to DMSO control, read-out: IKZF1 EC50; for Dmax: HEK293, HEK293 HiBiT
T1 construct: expressed in transfected cells
Outline: as §1

[3] = maximum degradation at the highest concentration tested
[4] = HEK293 HiBiT, maximum degradation at the highest concentration tested

Chain of IKZF2 (Q9UKS7 1-500 isoform Q9UKS7-2): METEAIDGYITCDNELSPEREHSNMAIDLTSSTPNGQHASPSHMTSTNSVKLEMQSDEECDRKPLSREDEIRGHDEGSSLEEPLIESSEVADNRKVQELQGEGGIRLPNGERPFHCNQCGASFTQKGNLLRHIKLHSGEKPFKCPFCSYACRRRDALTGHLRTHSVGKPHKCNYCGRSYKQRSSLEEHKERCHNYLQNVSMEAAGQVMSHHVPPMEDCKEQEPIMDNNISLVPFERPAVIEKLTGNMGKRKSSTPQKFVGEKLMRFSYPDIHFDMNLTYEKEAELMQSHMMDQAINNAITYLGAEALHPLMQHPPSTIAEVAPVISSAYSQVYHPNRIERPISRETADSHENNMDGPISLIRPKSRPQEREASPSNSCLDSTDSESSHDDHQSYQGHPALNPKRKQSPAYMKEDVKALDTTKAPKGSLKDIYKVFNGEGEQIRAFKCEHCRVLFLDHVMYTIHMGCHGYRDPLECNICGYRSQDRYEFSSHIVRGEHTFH
Chain of IKZF2 (Q96SW2 whole entry): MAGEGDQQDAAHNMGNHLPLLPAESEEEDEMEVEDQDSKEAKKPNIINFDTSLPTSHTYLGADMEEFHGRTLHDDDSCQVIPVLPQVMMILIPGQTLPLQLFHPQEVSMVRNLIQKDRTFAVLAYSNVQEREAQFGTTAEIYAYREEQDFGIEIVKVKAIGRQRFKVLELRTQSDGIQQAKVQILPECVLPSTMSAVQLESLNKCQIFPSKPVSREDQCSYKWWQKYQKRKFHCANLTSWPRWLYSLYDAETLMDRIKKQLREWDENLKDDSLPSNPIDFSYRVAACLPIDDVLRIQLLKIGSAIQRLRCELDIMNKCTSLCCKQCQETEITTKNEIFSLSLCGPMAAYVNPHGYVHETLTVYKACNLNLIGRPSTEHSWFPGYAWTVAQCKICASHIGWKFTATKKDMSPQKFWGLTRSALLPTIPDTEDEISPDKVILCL
Chain of IKZF2 (Q16531 whole entry partner): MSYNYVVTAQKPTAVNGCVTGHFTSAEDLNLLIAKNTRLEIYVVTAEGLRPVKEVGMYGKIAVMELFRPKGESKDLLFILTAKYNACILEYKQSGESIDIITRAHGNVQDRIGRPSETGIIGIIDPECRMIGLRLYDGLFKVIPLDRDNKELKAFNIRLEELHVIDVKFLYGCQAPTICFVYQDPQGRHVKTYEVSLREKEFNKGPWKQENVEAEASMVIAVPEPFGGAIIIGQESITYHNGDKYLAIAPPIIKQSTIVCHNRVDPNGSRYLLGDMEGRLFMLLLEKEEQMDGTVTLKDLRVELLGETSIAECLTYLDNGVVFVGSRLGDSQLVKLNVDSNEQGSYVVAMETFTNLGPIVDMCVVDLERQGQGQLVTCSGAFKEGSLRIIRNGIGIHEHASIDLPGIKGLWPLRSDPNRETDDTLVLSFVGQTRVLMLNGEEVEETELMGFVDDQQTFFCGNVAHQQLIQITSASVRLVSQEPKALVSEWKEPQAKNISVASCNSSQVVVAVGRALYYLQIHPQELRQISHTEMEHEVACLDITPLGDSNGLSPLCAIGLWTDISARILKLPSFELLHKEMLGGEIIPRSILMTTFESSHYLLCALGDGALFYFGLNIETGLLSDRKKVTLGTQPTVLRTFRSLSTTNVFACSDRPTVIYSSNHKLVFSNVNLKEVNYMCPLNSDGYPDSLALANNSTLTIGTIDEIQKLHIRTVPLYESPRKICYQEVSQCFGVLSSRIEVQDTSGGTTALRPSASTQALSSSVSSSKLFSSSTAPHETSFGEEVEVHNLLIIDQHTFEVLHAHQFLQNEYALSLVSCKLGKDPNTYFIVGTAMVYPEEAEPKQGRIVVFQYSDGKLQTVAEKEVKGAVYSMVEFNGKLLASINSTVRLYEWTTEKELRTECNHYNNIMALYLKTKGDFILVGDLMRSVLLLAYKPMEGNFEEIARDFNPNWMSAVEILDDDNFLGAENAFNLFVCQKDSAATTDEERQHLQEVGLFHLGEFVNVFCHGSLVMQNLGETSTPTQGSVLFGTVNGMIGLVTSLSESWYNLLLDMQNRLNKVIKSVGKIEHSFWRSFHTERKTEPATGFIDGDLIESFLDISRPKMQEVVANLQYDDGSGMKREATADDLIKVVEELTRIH
T1 sequence (Q13422 whole entry): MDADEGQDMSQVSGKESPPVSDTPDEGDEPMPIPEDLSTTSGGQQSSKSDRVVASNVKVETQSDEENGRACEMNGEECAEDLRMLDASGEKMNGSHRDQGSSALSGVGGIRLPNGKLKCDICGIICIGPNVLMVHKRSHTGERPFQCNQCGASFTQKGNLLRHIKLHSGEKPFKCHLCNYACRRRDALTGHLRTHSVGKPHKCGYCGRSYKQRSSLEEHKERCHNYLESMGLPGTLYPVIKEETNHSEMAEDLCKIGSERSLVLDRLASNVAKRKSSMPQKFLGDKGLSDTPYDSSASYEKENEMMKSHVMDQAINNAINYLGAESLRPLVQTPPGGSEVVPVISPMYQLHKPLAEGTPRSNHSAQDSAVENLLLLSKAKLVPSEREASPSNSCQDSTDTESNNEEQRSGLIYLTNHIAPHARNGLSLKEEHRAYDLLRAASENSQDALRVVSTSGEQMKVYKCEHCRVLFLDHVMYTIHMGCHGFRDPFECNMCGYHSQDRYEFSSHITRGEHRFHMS
T1 sequence (Q96SW2 whole entry): as the sequence (Q96SW2 whole entry) above
T1 sequence (Q16531 whole entry partner): as the sequence (Q16531 whole entry partner) above

Row | SMILES | Dmax [1, 3] [%] | DC50 ([1]; HEK293 HiBiT) [µM] | DC50 ([2]; HEK293 HiBiT) [µM] | Dmax [2, 3] [%] | IKZF2 Dmax [1, 4] [%] | IKZF1 Dmax [2, 4] [%]
1 | CC(C)(C)CCN(CCC(C)(C)C)[C@H]1CCCC[C@@H]1Cc1ccc2c(c1F)CN(C1CCC(=O)NC1=O)C2=O (stereo partly drawn) [Example 90, 3-(5-(((1R,2S)-2-(bis(3,3-dimethylbutyl)amino)cyclohexyl)methyl)-4-fluoro-1-oxoisoindolin-2-yl)piperidine-2,6-dione] | 75 | 0.069 | > 1 | – | – | –
2 | O=C1CCC(N2Cc3cc(C[C@H]4CCCC[C@@H]4NC4CCS(=O)(=O)CC4)ccc3C2=O)C(=O)N1 (stereo partly drawn) [Example 91, 3-(5-(((1R,2S)-2-((1,1-dioxidotetrahydro-2H-thiopyran-4-yl)amino)cyclohexyl)methyl)-1-oxoisoindolin-2-yl)piperidine-2,6-dione] | 97 | 0.017 | 0.16 | 47 | – | –
3 | O=C1CCC(N2Cc3cc(C[C@H]4OCCC[C@@H]4NC4CCC(F)(F)CC4)ccc3C2=O)C(=O)N1 (stereo partly drawn) [Example 92, 3-(5-(((2R,3S)-3-((4,4-difluorocyclohexyl)amino)tetrahydro-2H-pyran-2-yl)methyl)-1-oxoisoindolin-2-yl)piperidine-2,6-dione] | 82 | 0.044 | > 1 | – | – | –
4 | O=C1CCC(N2Cc3cc(C[C@H]4CCCC[C@@H]4NCCc4ccccc4)ccc3C2=O)C(=O)N1 (stereo partly drawn) [Example 93, 3-(1-oxo-5-(((1R,2S)-2-(phenethylamino)cyclohexyl)methyl)isoindolin-2-yl)piperidine-2,6-dione] | 91 | 0.023 | 0.039 | 22 | – | –
5 | O=C1CCC(N2Cc3c(ccc(C[C@H]4CCCC[C@@H]4NCC45CC(C4)C5)c3F)C2=O)C(=O)N1 (stereo partly drawn) [Example 96] | 95 | 0.009 | 0.173 | 35 | – | –
6 | O=C1CCC(N2Cc3c(ccc(C[C@H]4CCCC[C@@H]4NCC4CCC(F)(F)CC4)c3F)C2=O)C(=O)N1 (stereo partly drawn) [Example 99] | 94 | 0.014 | 0.068 | 37 | – | –
7 | CC1(C)CC2(CC(N[C@H]3CCCC[C@@H]3Cc3ccc4c(c3)CN(C3CCC(=O)NC3=O)C4=O)C2)C1 (stereo partly drawn) [Example 100] | 94 | 0.012 | 0.061 | 34 | – | –
8 | CC(N[C@H]1CCCC[C@@H]1Cc1ccc2c(c1)CN(C1CCC(=O)NC1=O)C2=O)C1CC1 (stereo partly drawn) [Example 102] | 96 | 0.006 | 0.242 | 27 | – | –
9 | O=C1CCC(N2Cc3cc(C[C@H]4CCCC[C@@H]4NCCC(F)(F)F)ccc3C2=O)C(=O)N1 (stereo partly drawn) [Example 104] | 92 | 0.016 | 0.075 | 37 | – | –
10 | O=C1CCC(N2Cc3cc(C[C@H]4CCCC[C@@H]4NC4CCCC[C@@H]4F)ccc3C2=O)C(=O)N1 (stereo partly drawn) [Example 105] | 96 | 0.004 | 0.076 | 31 | – | –
11 | O=C1CCC(N2Cc3cc(C[C@H]4CCCC[C@@H]4NC4CCCC[C@@H]4F)ccc3C2=O)C(=O)N1 (stereo partly drawn) [Example 106] | – | 0.01 | 0.079 | – | 95 | 24
12 | O=C1CCC(N2Cc3cc(C[C@H]4CCCC[C@@H]4NC4CCCC[C@H]4F)ccc3C2=O)C(=O)N1 (stereo partly drawn) [Example 107] | 96 | 0.003 | 0.081 | 36 | – | –
13 | CC(=O)N1CCC(N[C@H]2CCCC[C@@H]2Cc2ccc3c(c2)CN(C2CCC(=O)NC2=O)C3=O)CC1 (stereo partly drawn) [Example 108] | 96 | 0.055 | > 1 | – | – | –
14 | O=C1CCC(N2Cc3cc(C[C@H]4CCCC[C@@H]4NC4CCCCC4(F)F)ccc3C2=O)C(=O)N1 (stereo partly drawn) [Example 111] | 81 | 0.091 | > 1 | – | – | –
15 | O=C1CCC(N2Cc3cc(C[C@H]4CCCC[C@@H]4NC4CC5CCC(C4)O5)ccc3C2=O)C(=O)N1 (stereo partly drawn) [Example 112] | 97 | 0.003 | 0.056 | 30 | – | –
16 | CN(C1CCC(F)(F)CC1)[C@H]1CCCC[C@@H]1Cc1ccc2c(c1)CN(C1CCC(=O)NC1=O)C2=O (stereo partly drawn) [Example 123, 3-(5-(((1R,2S)-2-((4,4-difluorocyclohexyl)(methyl)amino)cyclohexyl)methyl)-1-oxoisoindolin-2-yl)piperidine-2,6-dione] | 88 | 0.026 | > 1 | – | – | –
17 | O=C1CCC(N2Cc3cc(C[C@H]4CCOC[C@@H]4NC4CCC(F)(F)CC4)ccc3C2=O)C(=O)N1 (stereo partly drawn) [Example 126] | 80 | 0.114 | > 1 | – | – | –
18 | CC(CF)N[C@H]1CCCC[C@@H]1Cc1ccc2c(c1)CN(C1CCC(=O)NC1=O)C2=O (stereo partly drawn) [Example 127] | 68 | 0.015 | 0.015 | 72 | – | –
19 | CCCCN[C@H]1CCCC[C@@H]1Cc1ccc2c(c1)CN(C1CCC(=O)NC1=O)C2=O (stereo partly drawn) [Example 128] | 98 | 0.018 | 0.094 | 19 | – | –
20 | CC(N[C@H]1CCCC[C@@H]1Cc1ccc2c(c1)CN(C1CCC(=O)NC1=O)C2=O)C(F)F (stereo partly drawn) [Example 130] | 76 | 0.148 | > 1 | – | – | –

Now from value to compound:

Row | Dmax [1, 3] [%] | DC50 ([1]; HEK293 HiBiT) [µM] | DC50 ([2]; HEK293 HiBiT) [µM] | Dmax [2, 3] [%] | IKZF2 Dmax [1, 4] [%] | IKZF1 Dmax [2, 4] [%] | SMILES
21 | 96 | 0.004 | 0.078 | 45 | – | – | O=C1CCC(N2Cc3cc(C[C@H]4CCCC[C@@H]4NC4CCc5ccccc54)ccc3C2=O)C(=O)N1 (stereo partly drawn) [Example 131]
22 | 97 | 0.004 | 0.066 | 45 | – | – | O=C1CCC(N2Cc3cc(C[C@H]4CCCC[C@@H]4NC4CC5CCC5C4)ccc3C2=O)C(=O)N1 (stereo partly drawn) [Example 132]
23 | 96 | 0.032 | 0.132 | 30 | – | – | CC(C)(C#N)CCN[C@H]1CCCC[C@@H]1Cc1ccc2c(c1)CN(C1CCC(=O)NC1=O)C2=O (stereo partly drawn) [Example 133]
24 | 97 | 0.061 | > 1 | – | – | – | COC(C)(C)CCN[C@H]1CCCC[C@@H]1Cc1ccc2c(c1)CN(C1CCC(=O)NC1=O)C2=O (stereo partly drawn) [Example 134]
25 | 93 | 0.016 | 0.077 | 24 | – | – | O=C1CCC(N2Cc3cc(C[C@H]4CCCC[C@@H]4NCCCC(F)F)ccc3C2=O)C(=O)N1 (stereo partly drawn) [Example 135]
26 | 98 | 0.002 | 0.058 | 53 | – | – | O=C1CCC(N2Cc3c(ccc(C[C@H]4CCCC[C@@H]4NC4CC5CCCC5C4)c3F)C2=O)C(=O)N1 (stereo partly drawn) [Example 141]
27 | 94 | 0.033 | > 1 | – | – | – | O=C1CCC(N2Cc3cc(C[C@H]4CCCC[C@@H]4NC4COc5ccccc5C4)ccc3C2=O)C(=O)N1 (stereo partly drawn) [Example 143]
28 | 97 | 0.007 | > 1 | – | – | – | CC1(C)CC(N[C@H]2CCCC[C@@H]2Cc2ccc3c(c2)CN(C2CCC(=O)NC2=O)C3=O)CC(C)(C)C1 (stereo partly drawn) [Example 144]
29 | 75 | 0.037 | > 1 | – | – | – | CC(c1ccc2c(c1)CN(C1CCC(=O)NC1=O)C2=O)[C@H]1CCCC[C@@H]1NC1CCC(F)(F)CC1 (stereo partly drawn) [Example 147]
30 | 71 | 0.046 | 0.045 | 36 | – | – | O=C1CCC(N2Cc3c(ccc(C[C@H]4OCCC[C@@H]4NCC4CCC(F)(F)CC4)c3F)C2=O)C(=O)N1 (stereo partly drawn) [Example 149]
31 | 73 | 0.051 | > 0.5 | – | – | – | O=C1CCC(N2Cc3c(ccc(C[C@H]4OCCC[C@@H]4NCC4CC(F)(F)C4)c3F)C2=O)C(=O)N1 (stereo partly drawn) [Example 150]
32 | 78 | 0.026 | > 0.5 | – | – | – | O=C1CCC(N2Cc3c(ccc(C[C@H]4OCCC[C@@H]4NCC4CCC4)c3F)C2=O)C(=O)N1 (stereo partly drawn) [Example 152]
33 | 90 | 0.114 | > 0.5 | – | – | – | C[C@@]1(O)CC[C@H](NC2CCC(F)(F)CC2)[C@@H](Cc2ccc3c(c2)CN(C2CCC(=O)NC2=O)C3=O)C1 (stereo partly drawn) [Example 154]
34 | 98 | 0.006 | > 1 | – | – | – | COC1CCC(NC2CCCOC2Cc2ccc3c(c2F)CN(C2CCC(=O)NC2=O)C3=O)CC1 (stereo not drawn) [Example 156]
35 | 92 | 0.008 | 0.061 | 35 | – | – | O=C1CCC(N2Cc3c(ccc(C[C@H]4OCCC[C@@H]4NC4CC5(CCC5)C4)c3F)C2=O)C(=O)N1 (stereo partly drawn) [Example 157]
36 | 91 | 0.011 | 0.072 | 50 | – | – | O=C1CCC(N2Cc3c(ccc(C[C@H]4OCCC[C@@H]4NC4CC5(CCCCC5)C4)c3F)C2=O)C(=O)N1 (stereo partly drawn) [Example 158]
37 | 88 | 0.095 | > 1 | – | – | – | CC1(C)OCC(N[C@H]2CCCC[C@@H]2Cc2ccc3c(c2)CN(C2CCC(=O)NC2=O)C3=O)CO1 (stereo partly drawn) [Example 161]
38 | 93 | 0.058 | 0.226 | 42 | – | – | O=C1CCC(N2Cc3cc(C[C@H]4C[C@@H](O)CC[C@@H]4NC4CCC(F)(F)CC4)ccc3C2=O)C(=O)N1 (stereo partly drawn) [Example 162]
39 | 95 | 0.014 | 0.328 | 45 | – | – | O=C1CCC(N2Cc3cc(C[C@H]4CCC[C@H](O)[C@@H]4NC4CCC(F)(F)CC4)ccc3C2=O)C(=O)N1 (stereo partly drawn) [Example 163]
40 | 83 | 0.017 | > 1 | – | – | – | CO[C@@H]1CCC[C@H](Cc2ccc3c(c2)CN(C2CCC(=O)NC2=O)C3=O)[C@H]1NC1CCC(F)(F)CC1 (stereo partly drawn) [Example 164]
41 | 98 | 0.02 | 0.27 | 28 | – | – | O=C1CCC(N2Cc3cc(C[C@H]4CCCC[C@@H]4NC4CCc5cn[nH]c5C4)ccc3C2=O)C(=O)N1 (stereo partly drawn) [Example 165]
42 | 96 | 0.023 | > 1 | – | – | – | CCCC(CCC)N[C@H]1CCCC[C@@H]1Cc1ccc2c(c1)CN(C1CCC(=O)NC1=O)C2=O (stereo partly drawn) [Example 166]
